Measurements from PubChem BioAssay AID330 (DTP/NCI, 2004).
Values joined by “and” are separate entries in the source; they are usually repeats but may differ in a detail not shown here. Equal values may be shown once. Inconclusive results and toxic doses are left out. Peptide text beside a SMILES is read from it. * marks the point of attachment. Cbz = O=C(OCc1ccccc1)*

Tested on: P388 leukemia ip, CD2F1 mice, survival T/C
Assay: NCI In Vivo Anticancer Drug Screen. Data for tumor model P388 Leukemia (intraperitoneal) in CD2F1 (CDF1) mice
Conditions: endpoint: median survival time, higher = longer survival
How it was run: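 Mice carrying the transplanted tumor received test compound or vehicle. Survival was recorded in each group, and the value is the treated-group measurement divided by that of the vehicle-treated control group.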

[1] = dose: 50.0 mg/kg/injection, schedule: Q01DX005 (ip), vehicle: Klucel (hydroxypropylcellulose) (HPC)
[2] = dose: 25.0 mg/kg/injection, schedule: Q01DX009 (ip), vehicle: saline
[3] = dose: 50.0 mg/kg/injection, schedule: Q01DX009 (ip), vehicle: saline
[4] = dose: 100.0 mg/kg/injection, schedule: Q01DX009 (ip), vehicle: saline
[5] = dose: 200.0 mg/kg/injection, schedule: Q01DX009 (ip), vehicle: saline
[6] = dose: 60.0 mg/kg/injection, schedule: Q01DX005 (ip), vehicle: saline
[7] = dose: 120.0 mg/kg/injection, schedule: Q01DX005 (ip), vehicle: saline
[8] = dose: 240.0 mg/kg/injection, schedule: Q01DX005 (ip), vehicle: saline
[9] = dose: 60.0 mg/kg/injection, schedule: Q01DX005 (ip), vehicle: saline with Tween-80
[10] = dose: 120.0 mg/kg/injection, schedule: Q01DX005 (ip), vehicle: saline with Tween-80
[11] = dose: 240.0 mg/kg/injection, schedule: Q01DX005 (ip), vehicle: saline with Tween-80
[12] = dose: 100.0 mg/kg/injection, schedule: Q04DX003 (ip), vehicle: saline with Tween-80
[13] = dose: 200.0 mg/kg/injection, schedule: Q04DX003 (ip), vehicle: saline with Tween-80
[14] = dose: 400.0 mg/kg/injection, schedule: Q04DX003 (ip), vehicle: saline with Tween-80
[15] = dose: 50.0 mg/kg/injection, schedule: Q01DX005 (ip), vehicle: saline with Tween-80
[16] = dose: 100.0 mg/kg/injection, schedule: Q01DX005 (ip), vehicle: saline with Tween-80
[17] = dose: 200.0 mg/kg/injection, schedule: Q01DX005 (ip), vehicle: saline with Tween-80
[18] = dose: 100.0 mg/kg/injection, schedule: Q01DX001 (ip), vehicle: Klucel (hydroxypropylcellulose) (HPC)
[19] = dose: 200.0 mg/kg/injection, schedule: Q01DX001 (ip), vehicle: Klucel (hydroxypropylcellulose) (HPC)
[20] = dose: 400.0 mg/kg/injection, schedule: Q01DX001 (ip), vehicle: Klucel (hydroxypropylcellulose) (HPC)
[21] = dose: 50.0 mg/kg/injection, schedule: Q01DX009 (ip), vehicle: Klucel (hydroxypropylcellulose) (HPC)
[22] = dose: 100.0 mg/kg/injection, schedule: Q01DX009 (ip), vehicle: Klucel (hydroxypropylcellulose) (HPC)
[23] = dose: 200.0 mg/kg/injection, schedule: Q01DX009 (ip), vehicle: Klucel (hydroxypropylcellulose) (HPC)

SMILES: CC(N)C(=O)OCN1C(=O)C2C3C=CC(C2C1=O)C1C2C(=O)N(COC(=O)C(C)N)C(=O)C2C31 (stereo not drawn)
- T/C (dose: 25.0 mg/kg/injection, schedule: Q01DX009 (ip), vehicle: water): 109 % of control and 112 % of control
- T/C (dose: 50.0 mg/kg/injection, schedule: Q01DX009 (ip), vehicle: water): 108 % of control
- T/C (dose: 100.0 mg/kg/injection, schedule: Q01DX009 (ip), vehicle: water): 178 % of control and 193 % of control

SMILES: CC(C)(C)[N]=[V]([Cl])([Cl])[Cl]
- T/C (dose: 12.5 mg/kg/injection, schedule: Q01DX005 (ip), vehicle: Klucel (hydroxypropylcellulose) (HPC)): 98 % of control
- T/C (dose: 25.0 mg/kg/injection, schedule: Q01DX005 (ip), vehicle: Klucel (hydroxypropylcellulose) (HPC)): 91 % of control
- T/C [1]: 98 % of control and 91 % of control

SMILES: Cc1ccc(O)c[n+]1[O-]
- T/C [2]: 101 % of control
- T/C [3]: 100 % of control and 105 % of control
- T/C [4]: 102 % of control and 97 % of control
- T/C [5]: 105 % of control and 117 % of control
- T/C (dose: 400.0 mg/kg/injection, schedule: Q01DX009 (ip), vehicle: saline): 108 % of control and 109 % of control

SMILES: COP(=O)(CI)OC
- T/C [3]: 102 % of control
- T/C [4]: 99 % of control
- T/C [5]: 107 % of control

SMILES: C1C[N+]2(CCO1)CC[N+]1(CCOCC1)CC2
- T/C [6]: 110 % of control
- T/C [7]: 101 % of control
- T/C [8]: 101 % of control

SMILES: N=c1nc(-c2ccccc2)c(-c2ccccc2)nn1CC(=O)c1ccc(Br)cc1
- T/C [1]: 111 % of control
- T/C (dose: 100.0 mg/kg/injection, schedule: Q01DX005 (ip), vehicle: Klucel (hydroxypropylcellulose) (HPC)): 94 % of control

SMILES: COC1OC2COC(c3ccccc3)OC2C(N=Cc2ccccc2)C1O (stereo not drawn)
- T/C [9]: 104 % of control
- T/C [10]: 103 % of control
- T/C [11]: 100 % of control

SMILES: O=C(Nc1ccc(Nc2ccc(NC(=O)c3ccccc3)c3c2C(=O)c2ccccc2C3=O)c2c1C(=O)c1ccccc1C2=O)c1ccccc1
- T/C [12]: 95 % of control
- T/C [13]: 100 % of control
- T/C [14]: 100 % of control

SMILES: Clc1ccc(CC(Cn2ccnc2)c2ccccc2Cl)cc1 (stereo not drawn)
- T/C (dose: 50.0 mg/kg/injection, schedule: Q01DX009 (ip), vehicle: saline with Tween-80): 94 % of control
- T/C (dose: 100.0 mg/kg/injection, schedule: Q01DX009 (ip), vehicle: saline with Tween-80): 86 % of control

SMILES: NC(=S)N/N=C\c1ncnc2ccccc12
- T/C (dose: 1.0 mg/kg/injection, schedule: Q01DX009 (ip), vehicle: saline with Tween-80): 104 % of control
- T/C (dose: 2.0 mg/kg/injection, schedule: Q01DX009 (ip), vehicle: saline with Tween-80): 118 % of control
- T/C (dose: 4.0 mg/kg/injection, schedule: Q01DX009 (ip), vehicle: saline with Tween-80): 100 % of control
- T/C (dose: 12.0 mg/kg/injection, schedule: Q01DX009 (ip), vehicle: saline with Tween-80): 154 % of control
- T/C (dose: 12.5 mg/kg/injection, schedule: Q01DX009 (ip), vehicle: saline with Tween-80): 150 % of control
- T/C (dose: 12.5 mg/kg/injection, schedule: Q04DX003 (ip), vehicle: saline with Tween-80): 112 % of control
- T/C (dose: 18.0 mg/kg/injection, schedule: Q01DX009 (ip), vehicle: saline with Tween-80): 172 % of control
- T/C (dose: 25.0 mg/kg/injection, schedule: Q04DX003 (ip), vehicle: saline with Tween-80): 116 % of control
- T/C (dose: 50.0 mg/kg/injection, schedule: Q04DX003 (ip), vehicle: saline with Tween-80): 120 % of control

SMILES: C[Si](C)(C)O/C=C1\CCc2ccccc2C1=O
- T/C [15]: 100 % of control
- T/C [16]: 101 % of control
- T/C [17]: 114 % of control

SMILES: N#CN(Cc1ccccc1)Cc1ccccc1.[Cl][Sn]([c]1ccccc1)([c]1ccccc1)[c]1ccccc1
- T/C (dose: 3.12 mg/kg/injection, schedule: Q01DX005 (ip), vehicle: saline with Tween-80): 98 % of control
- T/C (dose: 6.25 mg/kg/injection, schedule: Q01DX005 (ip), vehicle: saline with Tween-80): 95 % of control

SMILES: C[C@]12C=CC(=O)C=C1CC[C@H]1[C@@H]3CCC(=O)O[C@@]3(C)CC(=O)[C@@]12F
- T/C [12]: 91 % of control
- T/C [13]: 95 % of control
- T/C [14]: 100 % of control

SMILES: c1ccc(Cc2cc[n+](Cc3ccccc3)cc2)cc1
- T/C (dose: 12.5 mg/kg/injection, schedule: Q01DX009 (ip), vehicle: saline): 100 % of control
- T/C [2]: 101 % of control
- T/C [3]: 101 % of control and 89 % of control

SMILES: COc1ccc(Cn2nnc(C(N)=O)c2NC=O)cc1
- T/C [18]: 95 % of control
- T/C [19]: 100 % of control
- T/C [20]: 100 % of control

SMILES: Cn1c(=O)c2nc(-c3cccnc3)cnc2n(C)c1=O
- T/C [18]: 105 % of control
- T/C [19]: 105 % of control
- T/C [20]: 105 % of control

SMILES: O=C1NC(=O)C(=C2C(=O)COC2=O)C(=O)N1
- T/C [6]: 103 % of control
- T/C [7]: 106 % of control
- T/C [8]: 104 % of control

SMILES: CC(C)CC(NC(=O)C(Cc1ccccc1)NC(=O)OCc1ccccc1)C(=O)NC(C)C(=O)O (stereo not drawn) (Cbz-Phe-Leu-Ala-OH; configuration not given here)
- T/C [15]: 95 % of control
- T/C [16]: 97 % of control
- T/C [17]: 104 % of control

SMILES: O=C1C2=C(Nc3cc([N+](=O)[O-])ccc3N2)OC1c1ccccc1O (stereo not drawn)
- T/C (dose: 30.0 mg/kg/injection, schedule: Q01DX005 (ip), vehicle: Klucel (hydroxypropylcellulose) (HPC)): 106 % of control
- T/C (dose: 60.0 mg/kg/injection, schedule: Q01DX005 (ip), vehicle: Klucel (hydroxypropylcellulose) (HPC)): 103 % of control and 90 % of control
- T/C (dose: 120.0 mg/kg/injection, schedule: Q01DX005 (ip), vehicle: Klucel (hydroxypropylcellulose) (HPC)): 101 % of control
- T/C (dose: 240.0 mg/kg/injection, schedule: Q01DX005 (ip), vehicle: Klucel (hydroxypropylcellulose) (HPC)): 90 % of control

SMILES: C=CCSc1ccc(Cl)cc1[N+](=O)[O-]
- T/C [21]: 101 % of control
- T/C [22]: 100 % of control
- T/C [23]: 100 % of control

SMILES: CN1CCN(c2ccc([N+](=O)[O-])c3no[n+]([O-])c23)CC1
- T/C (dose: 2.5 mg/kg/injection, schedule: Q01DX009 (ip), vehicle: saline): 116 % of control
- T/C (dose: 20.0 mg/kg/injection, schedule: Q01DX009 (ip), vehicle: saline): 152 % of control

SMILES: COc1cc(C[C@@H](CO)[C@H](CO)Cc2ccc3c(c2)OCO3)cc(OC)c1OC
- T/C (dose: 6.25 mg/kg/injection, schedule: Q04DX002 (ip), vehicle: saline with Tween-80): 101 % of control
- T/C (dose: 12.5 mg/kg/injection, schedule: Q04DX002 (ip), vehicle: saline with Tween-80): 101 % of control
- T/C (dose: 25.0 mg/kg/injection, schedule: Q04DX002 (ip), vehicle: saline with Tween-80): 93 % of control

SMILES: N#Cc1cnn(-c2cc(Cl)c(Cl)cc2Cl)c1N
- T/C [12]: 99 % of control
- T/C [13]: 103 % of control
- T/C [14]: 111 % of control

SMILES: CC(C)NCC(O)c1ccccc1Cl (stereo not drawn)
- T/C (dose: 12.5 mg/kg/injection, schedule: Q01DX005 (ip), vehicle: saline with Tween-80): 100 % of control
- T/C (dose: 25.0 mg/kg/injection, schedule: Q01DX005 (ip), vehicle: saline with Tween-80): 104 % of control
- T/C [15]: 100 % of control and 90 % of control

SMILES: CCOC(=O)C1C2CCCCC21OC (stereo not drawn)
- T/C [9]: 106 % of control
- T/C [10]: 107 % of control
- T/C [11]: 110 % of control

SMILES: COc1cc2c(O)c(c1)CCCC1=CC(=O)C=C(CCC2)C1=O
- T/C (dose: 100.0 mg/kg/injection, schedule: Q01DX001 (ip), vehicle: saline with Tween-80): 99 % of control
- T/C (dose: 200.0 mg/kg/injection, schedule: Q01DX001 (ip), vehicle: saline with Tween-80): 101 % of control
- T/C (dose: 400.0 mg/kg/injection, schedule: Q01DX001 (ip), vehicle: saline with Tween-80): 94 % of control

SMILES: S=P(Oc1cc(Cl)c(Cl)cc1Cl)(N1CCN(c2cccc(Cl)c2)CC1)N1CCN(c2cccc(Cl)c2)CC1
- T/C [15]: 97 % of control
- T/C [16]: 88 % of control
- T/C [17]: 86 % of control

SMILES: O=C1CN(Cc2cccc(Cl)c2)CC(=O)N2Cc3ccccc3CN12
- T/C [15]: 106 % of control
- T/C [16]: 98 % of control

SMILES: CC1C(C(=O)NCCc2ccccc2)CC2CCCCN21 (stereo not drawn)
- T/C [9]: 102 % of control
- T/C [10]: 96 % of control

SMILES: C(=N/c1ccccn1)/c1ccc2c(c1)OCO2
- T/C [21]: 100 % of control
- T/C [22]: 105 % of control
- T/C [23]: 101 % of control
